Test results reported in article PMC8641298 (ACS infectious diseases, 2020).

What was measured:
HEK293 cytotoxicity = type: cell-based; conditions: human
adult S. mansoni = assay: WormAssay, average adult worm motility; type: cell-based, Schistosoma mansoni; conditions: 5 h; for WormAssay (average adult worm movement ± SD): DMSO control 104.1 ± 24.4; for EC50: Schistosoma mansoni, read-out: EC50 of paralysis measured by WormAssay
S. mansoni adults = assay: In vitro phenotypic screen of S. mansoni adults; type: cell-based, Schistosoma mansoni; conditions: for Phenotypic descriptors, adults 5 h / Phenotypic descriptors, adults 24 h / Phenotypic descriptors, adults 48 h: assays performed at 10 μM (footnote d)
S. mansoni somules = assay: In vitro phenotypic screen of S. mansoni somules; type: cell-based, Schistosoma mansoni
[1] = tested on: acetylated α-tubulin in HEK293 cells; assay: HEK293 MT-stabilization assay; type: cell-based; conditions: 4 h
HeLa cytotoxicity = type: cell-based; conditions: human, HeLa cells
[2] = HEK293 cells (method text: HEK 293T)
[3] = assays performed at 10 μM (footnote d)

Row | EC50 (adult S. mansoni) | SMILES | CC50 at 48 h (HEK293 cytotoxicity) | WormAssay (average adult worm movement ± SD) (adult S. mansoni; 5 μM) | Phenotypic descriptors, adults (5 μM) 5 h (S. mansoni adults) | Phenotypic descriptors, adults (5 μM) 24 h (S. mansoni adults) | Phenotypic descriptors, adults (5 μM) 48 h (S. mansoni adults) | Phenotypic descriptors, somules (1 μM) 24 h (S. mansoni somules) | Phenotypic descriptors, somules (1 μM) 48 h (S. mansoni somules) | Phenotypic descriptors, somules (10 μM) 24 h (S. mansoni somules) | Phenotypic descriptors, somules (10 μM) 48 h (S. mansoni somules) | Fold-change in acetylated α-tubulin ([1]; 1 μM) | CC50 at 48 h (HeLa cytotoxicity) | CC50 at 48 h (HEK293 cytotoxicity; [2]) | WormAssay (average adult worm movement ± SD) (adult S. mansoni; [3]) | Phenotypic descriptors, adults 5 h (S. mansoni adults) | Phenotypic descriptors, adults 24 h (S. mansoni adults) | Phenotypic descriptors, adults 48 h (S. mansoni adults) | Fold-change in acetylated α-tubulin ([1]; 10 μM) | Fold-change in acetylated α-tubulin (significance) ([1]; either 1 or 10 μM)
1 | – | CNCCCOc1cc(F)c(-c2c(Cl)nc3ncnn3c2N[C@@H](C)C(F)(F)F)c(F)c1 [Compound 12, cevipabulin, reference compound] | 28 nM | – | – | – | – | – | – | – | – | – | – | – | – | – | – | – | – | –
2 | – | C[C@H](Nc1nc(-c2ccc3ccccc3n2)nc(Cl)c1-c1c(F)cc(F)cc1F)C(F)(F)F [Compound 21, (S)-6-chloro-2-(quinolin-2-yl)-5-(2,4,6-trifluorophenyl)-N-(1,1,1-trifluoropropan-2-yl)pyrimidin-4-amine] | – | 75.3 ± 18.9 | N | N | S, on sides | N | N | R, deg | R, deg | 1.95 ± 0.2 (1 μM) fold | – | – | – | – | – | – | – | –
3 | – | CC1(CNc2nc(-c3cnccn3)nc(Cl)c2-c2c(F)cc(F)cc2F)N=N1 [Compound 22, 6-chloro-N-((3-methyl-3H-diazirin-3-yl)methyl)-2-(pyrazin-2-yl)-5-(2,4,6-trifluorophenyl)-pyrimidin-4-amine] | – | 131.4 ± 27.4 | N | N | Unc | R, deg | R, deg | R, deg | R, deg | 2.68 ± 0.04 (1 μM) fold | 40 ± 12 nM | 50 ± 10 nM | – | – | – | – | – | –
4 | – | C[C@H](Nc1nc(-c2nccs2)nc(Cl)c1-c1c(F)cc(F)cc1F)C(F)(F)F [Compound 23, (S)-6-chloro-2-(thiazol-2-yl)-5-(2,4,6-trifluorophenyl)-N-(1,1,1-trifluoropropan-2-yl)pyrimidin-4-amine] | – | – | – | – | – | Deg, unc | Deg, unc | Deg, unc | Deg, unc | – | 6 ± 1 nM | 8 ± 2 nM | 62.1 ± 26.4^d | Unc, dark^d | Unc, dark^d | Unc, dark^d | – | –
5 | – | C[C@H](Nc1nc(-c2ccco2)nc(Cl)c1-c1c(F)cc(F)cc1F)C(F)(F)F [Compound 24, (S)-6-chloro-2-(furan-2-yl)-5-(2,4,6-trifluorophenyl)-N-(1,1,1-trifluoropropan-2-yl)pyrimidin-4-amine] | – | – | – | – | – | N | N | N | Deg, unc | – | – | – | 56.0 ± 21.5^d | S^d | Unc, on sides^d | S, dark, on sides^d | 2.7 ± 0.2 (10 μM) fold | –
6 | ~1000 nM | C[C@H](Nc1nc(-c2cccs2)nc(Cl)c1-c1c(F)cc(F)cc1F)C(F)(F)F [Compound 25, (S)-6-chloro-2-(thiophen-2-yl)-5-(2,4,6-trifluorophenyl)-N-(1,1,1-trifluoropropan-2-yl)pyrimidin-4-amine] | – | 5.5 ± 9.8 | I, on sides | I, on sides | I, on sides | R, S | R, S | rounding and immobility and R, I | R, I, | – | 1660 ± 612 nM | 1270 ± 106 nM | – | – | – | – | 3.0 ± 0.6 (10 μM) fold | –
7 | – | C[C@H](Nc1nc(-c2cccs2)ncc1-c1c(F)cc(F)cc1F)C(F)(F)F [Compound 26, (S)-2-(thiophen-2-yl)-5-(2,4,6-trifluorophenyl)-N-(1,1,1-trifluoropropan-2-yl)pyrimidin-4-amine] | – | – | – | – | – | R, S | R | R, S | R, S | – | > 100000 nM | > 50000 nM | 11.0 ± 14.7^d | S^d | Unc, on sides^d | S, dark, on sides^d | – | NS^e
8 | – | C[C@@H](Nc1nc(-c2cccs2)nc(Cl)c1-c1c(F)cc(F)cc1F)C(F)(F)F [Compound 27, (R)-6-chloro-2-(thiophen-2-yl)-5-(2,4,6-trifluorophenyl)-N-(1,1,1-trifluoropropan-2-yl)pyrimidin-4-amine] | – | 6.3 ± 9.3 | I, on sides | I, on sides | I, on sides | R, S | R | R, I | R, I | – | 27700 ± 10400 nM | 29400 nM | – | – | – | – | – | –
9 | ~1000 nM | CC(C)[C@@H](C)Nc1nc(-c2cccs2)nc(Cl)c1-c1c(F)cc(F)cc1F [Compound 28, (R)-6-chloro-N-(3-methylbutan-2-yl)-2-(thiophen-2-yl)-5-(2,4,6-trifluorophenyl)pyrimidin-4-amine] | – | 2.9 ± 8.8 | I, on sides | I, on sides | I, on sides | R, I | R, I | R, I | R, I | – | 17400 ± 2000 nM | 26800 nM | – | – | – | – | – | –
10 | ~1000 nM | CC(C)[C@H](C)Nc1nc(-c2cccs2)nc(Cl)c1-c1c(F)cc(F)cc1F [Compound 29, (S)-6-chloro-N-(3-methylbutan-2-yl)-2-(thiophen-2-yl)-5-(2,4,6-trifluorophenyl)pyrimidin-4-amine] | – | 5.0 ± 11.5 | I, on sides | I, on sides | I, on sides | R, S | R, S | R, I | R, I | – | 8780 ± 1390 nM | 29100 nM | – | – | – | – | – | –
11 | – | CC1(CNc2nc(-c3cccs3)nc(Cl)c2-c2c(F)cc(F)cc2F)N=N1 [Compound 30, 6-chloro-N-((3-methyl-3H-diazirin-3-yl)methyl)-2-(thiophen-2-yl)-5-(2,4,6-trifluorophenyl)-pyrimidin-4-amine] | – | 12.9 ± 18.1 | S, on sides | S, on sides | S, on sides | S | S, R | R, I | R, I | – | 3890 ± 1860 nM | 1270 ± 35 nM | – | – | – | – | – | –
12 | – | C[C@H](Nc1cc(Cl)nc(-c2cccs2)n1)C(F)(F)F [Compound 31, (S)-6-chloro-2-(thiophen-2-yl)-N-(1,1,1-trifluoropropan-2-yl)pyrimidin-4-amine] | – | 89.0 ± 18.6 | N | N | N | R, unc | N | R, unc | N | – | – | – | – | – | – | – | – | –
13 | – | Fc1cc(F)c(-c2cnc(-c3cccs3)nc2Cl)c(F)c1 [Compound 32, 4-chloro-2-(thiophen-2-yl)-5-(2,4,6-trifluorophenyl)pyrimidine] | – | 78.0 ± 20.1 | N | N | N | N | N | R, S | N | – | – | – | – | – | – | – | – | –
14 | – | O=C(C1CCCCC1)N1CC(=O)N2CCc3ccccc3C2C1 (centres unmarked) [PZQ, praziquantel, reference compound] | – | 1.8 ± 5.1 | – | – | – | – | – | – | – | – | – | – | – | – | – | – | – | –
